This note sets out measurements from PubChem BioAssay AID1259407 (Chemical Carcinogenesis Research Information System (CCRIS), 2018).

Activity calls are given as the source filed them. How the calls were made is not given here.

This data set has as its system CCRIS mutagenicity, Ames/micronucleus/aberration tests. Put plainly: CCRIS mutagenicity studies. The note with it: Test System: AMES SALMONELLA TYPHIMURIUM
The mark [1] stands for this setting: Strain/Indicator: TA98, Metabolic Activation: NONE, Method: PREINCUBATION
Setting [2] is: Strain/Indicator: TA98, Metabolic Activation: NONE, Method: STANDARD PLATE.
The mark [3] stands for this setting: Strain/Indicator: TA100, Metabolic Activation: NONE, Method: STANDARD PLATE.

Turning to `CC1C=CC(=O)O1` (stereo not drawn), the mutagenic call under setting [1] is “inactive; negative”; the mutagenic call (Strain/Indicator: TA98, Metabolic Activation: RAT, LIVER, S-9, AROCLOR 1254, Method: PREINCUBATION) is “inactive; negative”; the mutagenic call (Strain/Indicator: TA100, Metabolic Activation: NONE, Method: PREINCUBATION) was “inactive; negative”; the mutagenic call (Strain/Indicator: TA100, Metabolic Activation: RAT, LIVER, S-9, AROCLOR 1254, Method: PREINCUBATION) was “inactive; negative”; the mutagenic call (Strain/Indicator: TA102, Metabolic Activation: NONE, Method: PREINCUBATION) was “inactive; negative”; the mutagenic call (Strain/Indicator: TA102, Metabolic Activation: RAT, LIVER, S-9, AROCLOR 1254, Method: PREINCUBATION) was “inactive; negative”.

In the case of `Cc1ccc2c([N+](=O)[O-])cccc2c1`, under setting [1], the mutagenic call was “active; positive”.

Regarding `Oc1ccc2c(ccc3[nH]c4ccc5ccccc5c4c32)c1`, the mutagenic call by setting is: under setting [2], “inactive; negative”; (Strain/Indicator: TA98, Metabolic Activation: RAT, LIVER, S-9, 3-METHYLCHOLANTHRENE, Method: STANDARD PLATE) “active; positive”; under setting [3], “inactive; negative”; (Strain/Indicator: TA100, Metabolic Activation: RAT, LIVER, S-9, 3-METHYLCHOLANTHRENE, Method: STANDARD PLATE) “active; positive”; (Strain/Indicator: TM677, Metabolic Activation: NONE, Method: PREINCUBATION) “inactive; negative”; (Strain/Indicator: TM677, Metabolic Activation: RAT, LIVER, S-9, 3-METHYLCHOLANTHRENE (1%), Method: PREINCUBATION) “active; positive”. Also, the mutagenic call was “active; positive” (Strain/Indicator: TM677, Metabolic Activation: RAT, LIVER, S-9, 3-METHYLCHOLANTHRENE (10%), Method: PREINCUBATION) and “active; positive” (Strain/Indicator: TM677, Metabolic Activation: RAT, LIVER, S-9, AROCLOR 1254 (10%), Method: PREINCUBATION).

On to `O=S(=O)(Nc1ccc(Cl)c(Cl)c1)c1cccc2cccnc12`, for which the mutagenic call was “inactive; negative” under setting [2]; “inactive; negative” (Strain/Indicator: TA98, Metabolic Activation: RAT, LIVER, S-9, AROCLOR 1254, Method: STANDARD PLATE); “inactive; negative” under setting [3]; “inactive; negative” (Strain/Indicator: TA100, Metabolic Activation: RAT, LIVER, S-9, AROCLOR 1254, Method: STANDARD PLATE); “inactive; negative” (Strain/Indicator: TA1535, Metabolic Activation: NONE, Method: STANDARD PLATE); “inactive; negative” (Strain/Indicator: TA1535, Metabolic Activation: RAT, LIVER, S-9, AROCLOR 1254, Method: STANDARD PLATE). The mutagenic call by setting is: (Strain/Indicator: TA1537, Metabolic Activation: NONE, Method: STANDARD PLATE) “inactive; negative”; (Strain/Indicator: TA1537, Metabolic Activation: RAT, LIVER, S-9, AROCLOR 1254, Method: STANDARD PLATE) “inactive; negative”.
